The source of these data is paper PMC8955370, “Triterpenes and Phenolic Compounds from Euphorbia deightonii with Antiviral Activity against Herpes Simplex Virus Type-2” (Plants, 2022).

Series [1] in a line: MTT cell viability assay for cytotoxic concentration 50% (CC50). The format is cell-based. Conditions: African green monkey. The protocol: For the determination of cytotoxic concentration 50% (CC50), a cell viability test was performed as an MTT assay using the Vero cell line. Cells were seeded at a density of 4 × 10^4 cells/well. After an overnight period, fresh medium was complemented with serial 2-fold dilutions of all compounds 1–8. The cells were incubated at 37 °C for 24 h. Later, 20 μL of thiazolyl blue tetrazolium bromide (MTT; Sigma-Aldrich, St. Louis, MO, USA) was added to each well. After an additional incubation at 37 °C for 4 h, sodium dodecyl sulphate (Sigma-Aldrich, St. Louis, MO, USA) solution (10% in 0.01 M HCI) was added and incubated overnight. CC50 was then determined by measuring the OD at 550 nm (ref. 630 nm) with the EZ READ 400 ELISA reader (Biochrom, Cambridge, UK). The assay was replicated four times for each concentration.

Series [2] concerns HSV-2. Briefly: Anti-HSV-2 qRT-PCR assay on infected Vero cells. To be noted: for IC50: Human alphaherpesvirus 2, Vero; for Selectivity Index: SI = CC50/IC50; for Anti-HSV-2 Activity IC50: Vero cells infected with 0.01 MOI HSV-2, 24 h, qRT-PCR.
The test system of series [3] is HSV-2. To be noted: by reducing HSV-2 infectivity; cited from earlier work.
Series [4] deals with human normal liver (L–O2). Set-up: method as in PMID 23109850. Conditions: L–O2 cells; cited from earlier work.
For series [5], the system named is gastric epithelial cell lines (GES–2). Also on record: method as in PMID 23109850. To be noted: GES–2 cells; cited from earlier work.
For a further series, the system named is rat epithelioid. Set-up: method as in PMID 26274958. Conditions: rat epithelioid cells; cited from earlier work.
In series [6] the test system is six terrestrial pathogenic bacteria. Set-up: method as in PMID 24914904. To be noted: cited from earlier work.
Series [7] deals with murine colon 26-L5 carcinoma cells. Set-up: method as in PMID 9677271. To be noted: cited from earlier work.
Series [8] concerns human HT-1080 fibrosarcoma. Set-up: method as in PMID 9677271. Conditions: cited from earlier work.
A further series has as its system Bacillus subtilis. Set-up: method as in doi:10.1016/S0031-9422(00)81759-8. To be noted: cited from earlier work.
The test system of a further series is Trychophyton rubrum. Set-up: method as in doi:10.1016/S0031-9422(00)81759-8. Conditions: cited from earlier work.
The next series relates to Klebsiella pneumoniae. Also on record: method as in doi:10.1016/S0031-9422(00)81759-8. Conditions: cited from earlier work.
The next series deals with hepatitis B virus (HBV). Also on record: method as in PMID 31557836. To be noted: HepG2.2.15 model transfected with HBV; cited from earlier work.
For series [9], the system named is porcine circovirus type 2 (PCV2). Also on record: method as in doi:10.1007/s12257-014-0520-8. Conditions: at the concentration of 0.01563 mg/mL; cited from earlier work.
The subject of series [10] is influenza A virus (A/PR/8/34, H1N1). Also on record: method as in PMID 28081470. Conditions: not effective; cited from earlier work.
The subject of series [11] is acyclovir (ACV)-resistant strains of HSV-1. Set-up: method as in PMID 32545813. Conditions: ACV-resistant HSV-1; cited from earlier work.
Series [12] deals with acyclovir (ACV)-resistant strains of HSV-2. To be noted: ACV-resistant HSV-2; cited from earlier work.
The subject of series [13] is HSV-2. Set-up: method as in PMID 14526920. To be noted: cited from earlier work.
The next series deals with HSV-1. Also on record: method as in PMID 14526920. Conditions: cited from earlier work.
For a further series, the system named is HSV. Set-up: method as in PMID 14998984. Conditions: cited from earlier work.
Where [14] appears, read: 24 h, read-out: Anti-HSV-2 Activity IC50.
The mark [15] stands for this setting: Vero cells, MTT assay, 24 h, read-out: CC50.

Like-named read-outs stand apart in the source and are kept apart here.

On to `C=CC(OC)c1cc(OC)c2c(c1)[C@@H](COC(C)=O)[C@H](c1ccc(O)c(OC)c1)O2` (relative stereo) [Compound 4, trans-(2-(4-hydroxy-3-methoxyphenyl)-7-methoxy-5-(1-methoxyallyl)-2,3-dihydrobenzofuran-3-yl)methyl acetate], for which the half-maximal cytotoxic concentration (CC50) at 24 h in [1] is 39.8 ± 4.73 µM. Besides, the half-maximal inhibitory concentration (IC50) in the series on HSV-2 [2] (setting [14]) was 11700 ± 790 nM. Besides, the “Selectivity Index” value in the series on HSV-2 [2] worked out at 3.389.
For the compound `O=C(OC1C(O)C(O)OC2COC(=O)c3cc(O)c(O)c(O)c3-c3c(cc(O)c(O)c3O)C(=O)OC21)c1cc(O)c(O)c(O)c1` [3-O-galloyl-4,6-(S)-hexahydroxydiphenoyl-D-glucose], the HSV-2 multiplication result in the series on HSV-2 [3] is “inhibit HSV-2 multiplication”.
Take `Nc1nc2c(ncn2COCCO)c(=O)[nH]1` [Acyclovir, reference compound]: it took 100 ± 6.15 µM to reach half-maximal cytotoxicity in series [1] (CC50 at 24 h). For the same compound, in the series on HSV-2 [2] (setting [14]), the half-inhibitory concentration (IC50) was found to be 770 ± 32 nM. Further, the “Selectivity Index” value in the series with HSV-2 [2] is 129.87.
In the same order, the values of `C=C(CC[C@@H](C)[C@H]1CC[C@@]2(C)C3=C(C(=O)C[C@]12C)[C@@]1(C)CC[C@H](O)C(C)(C)[C@@H]1C[C@@H]3O)C(C)C` [Compound 1, 3β,7β-dihydroxy-24-methylenelanosta-8-ene-11-one] are 35.5 ± 1.62 µM, 7050 ± 250 nM and 5.03.
Take `CC(C)=CCC[C@@H](C)[C@@H]1CC[C@]2(C)C3=C(CC[C@@]12C)[C@@]1(C)CC[C@H](O)C(C)(C)[C@@H]1CC3=O` [Compound 2, kansenone]: the cytotoxicity entry (in series [4]; in [5]; with rat epithelioid) was “strong cytotoxicity” in each case. Also, the CC50 at 24 h in series [1] (setting [15]) worked out at 52.1 ± 2.21 µM. Besides, the “Anti-HSV-2 Activity IC50” value with HSV-2 [2] was “inactive”.
Consider `C=C(CC[C@H](C)[C@@H]1CC[C@@]2(C)C3=C(CC[C@]12C)[C@@]1(C)CC[C@H](O)C(C)(C)[C@@H]1CC3=O)C(C)C` [Compound 3, euphorbol-7-one], for which, in series [1] (setting [15]), the CC50 at 24 h stood at 7.84 ± 0.96 µM. For the same compound, in [6], the antibacterial activity entry is given as “ineffective”. The concentration for half-maximal inhibition (IC50) in the series with HSV-2 [2] (setting [14]) was 2420 ± 60 nM. Besides, the “Selectivity Index” value with HSV-2 [2] came out at 3.23.
Consider `COc1cc([C@H]2Oc3c(OC)cc(/C=C/COC(C)=O)cc3[C@@H]2COC(C)=O)ccc1O` [Compound 5, dehydrodiconiferyl-diacetate], for which the cytotoxic activity result in [7] and in series [8] was “moderate cytotoxic activity” each time. Moreover, in series [1], it took 82.5 ± 8.94 µM to reach half-maximal cytotoxicity (CC50 at 24 h). In the series with HSV-2 [2], the “Anti-HSV-2 Activity IC50” value is “inactive”.
For the compound `COc1cc(C(OC)C(COC(C)=O)Oc2ccc(/C=C/COC(C)=O)cc2OC)ccc1O` (centres unmarked) [Compound 6, marylaurencinol D], the antimicrobial activity result in the series on Bacillus subtilis is given as “weak potency”; in the series on Trychophyton rubrum, “no effect”; in the series on Klebsiella pneumoniae it was “no effect”. The CC50 at 24 h in series [1] was 71.6 ± 5.83 µM. In the series on HSV-2 [2], the “Anti-HSV-2 Activity IC50” value was “inactive”.
On to `COc1cc2ccc(=O)oc2cc1OC` [Compound 7, 6,7-dimethoxycoumarin], for which the “anti-hepatitis B virus activity” value in the series on hepatitis B virus (HBV) is on record as “efficiently inhibits viral replication”. In addition, the “effect on PCV2 replication” value in [9] was “replication-inducing activity”. In addition, the “IC50 against influenza A virus” value in series [10] was more than 15 µg/mL. The same compound showed a cytotoxic concentration (CC50) at 24 h in series [1] of 0.35 ± 0.016 µM. In addition, the IC50 with HSV-2 [2] (setting [14]) was found to be 32 ± 2.1 nM; in the series with HSV-2 [2] (read-out: IC50 (anti-HSV-2)), 32 nM. Also, the “Selectivity Index” value in the series on HSV-2 [2] is recorded as 10.923.
For `COc1cc2c(=O)oc3c(OC)c(O)cc4c(=O)oc(c1OC)c2c34` [Compound 8, 3,4,3′-tri-O-methylellagic acid], it took 25.7 ± 1.84 µM to reach half-maximal cytotoxicity in series [1] (CC50 at 24 h). Further, the “Anti-HSV-2 Activity IC50” value in the series with HSV-2 [2] is “inactive”.
For the compound `O=C1OC[C@H]2OC(=O)c3cc(O)c(O)c(O)c3-c3c(O)c(O)c(O)c4c3C(=O)O[C@H]([C@H]3OC(=O)c5c-4c(O)c(O)c(O)c5[C@H]3O)[C@@H]2OC(=O)c2cc(O)c(O)c(O)c2-c2c1cc(O)c(O)c2O` [castalagin], the antiviral activity entry in series [11] was “activity against acyclovir (ACV)-resistant strains of HSV-1 and HSV-2 was proved”; in [12], “activity against acyclovir (ACV)-resistant strains of HSV-1 and HSV-2 was proved”.
`C=C(C)[C@@H]1CC[C@]2(C)CC[C@]3(C)[C@H](CC[C@@H]4[C@@]5(C)CCC(=O)C(C)(C)[C@@H]5CC[C@]43C)[C@@H]12` [lupenone]: the “viral plaque inhibitory effect” value in the series on HSV-2 [13] and in the series with HSV-1 was “strong viral plaque inhibitory effect” each time.
As to `O=C(OC1OC2COC(=O)c3cc(O)c(O)c(O)c3-c3c(cc(O)c(O)c3O)C(=O)OC3C2OC(=O)C24CC5(O)OC6(OCC(O)C6O)C2OC2(O)C4c4c(cc(O)c(O)c4OC52O)C(=O)OC13)c1cc(O)c(O)c(O)c1` (centres unmarked) [putranjivain A], in the series with HSV, the “viral attachment and cell penetration” value is “inhibition of viral attachment and cell penetration”; the viral infectivity entry is reported as “significantly reduce viral infectivity”.
As to `O=C1OCC2OC(=O)c3cc(O)c(O)c(O)c3-c3c(O)c(O)c(O)c4c3C(=O)OC(C2OC(=O)c2cc(O)c(O)c(O)c2-c2c1cc(O)c(O)c2O)C1OC(=O)c2c-4c(O)c(O)c(O)c2C1O` (centres unmarked) [vescalagin], the antiviral activity entry was “activity against acyclovir (ACV)-resistant strains of HSV-1 and HSV-2 was proved” in [11]; “activity against acyclovir (ACV)-resistant strains of HSV-1 and HSV-2 was proved” in series [12].
Take grandinin: the antiviral activity entry in series [11] is “activity against acyclovir (ACV)-resistant strains of HSV-1 and HSV-2 was proved”; in series [12], “activity against acyclovir (ACV)-resistant strains of HSV-1 and HSV-2 was proved”.
